“And” between values parts separate entries of the source, which are not always exact repeats. Equal values may be shown once. Read-outs that look alike come from different tables or passages of the source.
Legend:
[1] = system: picrotoxin binding site of the GABA-A receptor; details: for IC50: read-out: IC50 of S^35-TBPS displacement
[2] = target: T1, α1β2γ2 recombinant GABA-A receptors (Homo sapiens, UniProt P14867+P18507+P47870); test: cell-based
T1 construct: expressed in transfected cells; host or cells: Xenopus laevis oocytes injected with cRNA
T1 sequence (P14867 28-456): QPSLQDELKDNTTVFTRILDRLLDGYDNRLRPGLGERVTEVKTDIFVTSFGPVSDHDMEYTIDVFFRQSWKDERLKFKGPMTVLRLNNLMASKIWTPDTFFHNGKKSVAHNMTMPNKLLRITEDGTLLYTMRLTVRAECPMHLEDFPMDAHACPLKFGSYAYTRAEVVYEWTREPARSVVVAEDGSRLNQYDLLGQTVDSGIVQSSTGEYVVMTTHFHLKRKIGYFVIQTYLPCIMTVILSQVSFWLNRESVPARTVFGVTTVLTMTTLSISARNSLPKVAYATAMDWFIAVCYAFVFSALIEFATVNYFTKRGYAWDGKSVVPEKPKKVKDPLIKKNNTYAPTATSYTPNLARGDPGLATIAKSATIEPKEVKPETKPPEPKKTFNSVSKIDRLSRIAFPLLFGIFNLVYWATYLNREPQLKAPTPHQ
T1 sequence (P47870 25-512 limits assumed): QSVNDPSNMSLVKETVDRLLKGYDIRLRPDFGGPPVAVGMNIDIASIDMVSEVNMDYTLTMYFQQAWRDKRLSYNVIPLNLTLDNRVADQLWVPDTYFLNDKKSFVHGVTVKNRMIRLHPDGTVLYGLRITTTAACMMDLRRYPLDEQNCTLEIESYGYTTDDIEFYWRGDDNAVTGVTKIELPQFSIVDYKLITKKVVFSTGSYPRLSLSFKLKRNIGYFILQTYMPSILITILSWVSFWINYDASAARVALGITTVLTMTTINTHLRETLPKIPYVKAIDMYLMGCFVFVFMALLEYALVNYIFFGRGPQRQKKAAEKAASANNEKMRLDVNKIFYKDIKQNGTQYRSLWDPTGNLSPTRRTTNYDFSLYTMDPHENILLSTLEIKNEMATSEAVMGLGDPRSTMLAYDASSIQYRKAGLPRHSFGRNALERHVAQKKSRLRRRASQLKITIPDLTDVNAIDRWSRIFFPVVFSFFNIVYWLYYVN
T1 sequence (P18507 40-475): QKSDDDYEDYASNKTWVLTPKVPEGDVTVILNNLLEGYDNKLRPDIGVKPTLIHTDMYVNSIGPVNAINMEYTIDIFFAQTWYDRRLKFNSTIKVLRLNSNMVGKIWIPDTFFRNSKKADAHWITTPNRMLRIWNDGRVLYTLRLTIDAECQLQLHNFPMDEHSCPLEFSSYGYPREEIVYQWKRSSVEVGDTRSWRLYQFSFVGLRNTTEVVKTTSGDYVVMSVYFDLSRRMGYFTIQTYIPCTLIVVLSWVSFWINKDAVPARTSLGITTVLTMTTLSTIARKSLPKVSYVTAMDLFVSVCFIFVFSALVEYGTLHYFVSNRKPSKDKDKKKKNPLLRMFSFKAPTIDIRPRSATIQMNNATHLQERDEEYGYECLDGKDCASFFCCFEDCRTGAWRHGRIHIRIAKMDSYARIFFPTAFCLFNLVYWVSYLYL

[3] = system: GABA binding site of the GABA-A receptor; test: [H3]muscimol displacement, brain membranes; details: 100 μM
[4] = system: benzodiazepine binding site of the GABA-A receptor; test: [H3]flunitrazepam displacement, brain membranes
[5] = target: picrotoxin binding site of the GABA-A receptor; details: published compounds; read-out: Displacement of S^35-TBPS (IC50); cited from earlier work
[6] = system: GABA currents in cultured neurons; details: cited from earlier work
[7] = Solubility noted in the electrophysiological test
mice = details: attacks induced by pentylenetetrazole and picrotoxin; cited from earlier work
[8] = 200 μM, α1β2γ2, read-out: % of stimulation of the GABA currents
[9] = α1β2γ2, read-out: % of stimulation of the GABA currents

Molecule: O=C1CC(NC(=O)OCc2ccccc2)CO1 (centres unmarked) [Compound 26, 3-Benzyloxycarbonylamino-1,4-butyrolactone]
- Inhibition of the radiolabeled ligands % TBPS ([1]; 100 μM): 0%
- stimulating activities for the GABA current (in words) [2]: low stimulating activities
- % of stimulation of the GABA currents ([2]; 0.1 μM, α1β2γ2): +47 ± 90%
- % of stimulation of the GABA currents ([2]; 200 μM, α1β2γ2): +47 ± 9%
- Inhibition of the radiolabeled ligands % Muscimol [3]: 0%
- Inhibition of the radiolabeled ligands % Flu ([4]; 100 μM): 0%

Molecule: CCCC1(CCC)C(=O)OCC1NC(=O)OCc1ccccc1 (centres unmarked) [Compound 30, 3-Benzyloxycarbonylamino-2,2-(C-dipropyl)-1,4-butyrolactone]
- Inhibition of the radiolabeled ligands % TBPS ([1]; 10 μM): 0 10 μM) %
- Inhibition of the radiolabeled ligands % TBPS ([1]; 100 μM): 55%
- activation at 1 µM ([2]; 1 μM, α1β2γ2, read-out: % of stimulation of the GABA currents): 15%
- activation at 10 µM ([2]; 10 μM, α1β2γ2, read-out: % of stimulation of the GABA currents): 140%
- activation at 50 µM ([2]; 50 μM, α1β2γ2, read-out: % of stimulation of the GABA currents): 250%
- activation at 200 µM [2, 8]: 51%
- Inhibition of the radiolabeled ligands % Muscimol [3]: 0%
- Inhibition of the radiolabeled ligands % Flu ([4]; 100 μM): 0%

Molecule: CC1(CC(F)(F)F)CCOC1=O (centres unmarked) [Compound 61]
- IC50 [5]: 3100 µM
- % of stimulation of GABA (concentration) ([6]; 1 μM): +146 ± 12%

Molecule: C[C@@H]1C(=O)OC[C@H]1N(Cc1ccccc1)C(=O)OCc1ccccc1 (relative stereo) [Compound 42, trans-3-(N-benzyl-N-benzyloxycarboyl)amino-2-(C-methyl)-1,4-butyrolactone]
- Inhibition of the radiolabeled ligands % TBPS ([1]; 10 μM): 15%
- Inhibition of the radiolabeled ligands % TBPS ([1]; 100 μM): 52%
- % of stimulation of the GABA currents ([2]; 200 μM, α1β2γ2): +3 ± 10%
- Inhibition of the radiolabeled ligands % Flu ([4]; 100 μM): 0%

Molecule: CCCC1(CCC)C(=O)OCC1NS(=O)(=O)c1ccc(Cl)cc1 (centres unmarked) [Compound 31, 3-(p-Chlorophenylsulfonamido)-2,2-di(C-propyl)-1,4-butyrolactone]
- insoluble at (concentration) ([7]; in the GABA current test): insoluble at higher concentrations
- solubility ([7]; pH 7.4): > 5 µM
- IC50 [1]: 10 µM and ~10 µM
- activation at 5 µM ([2]; 5 μM, α1β2γ2, read-out: % of stimulation of the GABA currents): 23%
- Inhibition of the radiolabeled ligands % Muscimol [3]: 0%

Molecule: CCCC1(CCC)C(=O)OCC1NC(=O)OCC (centres unmarked) [Compound 36, 3-Ethyloxycarbonylamino-2,2-di(C-propyl)-1,4-butyrolactone]
- IC50 [1]: > 100 µM
- Inhibition of the radiolabeled ligands % Muscimol [3]: 0%
- Inhibition of the radiolabeled ligands % Flu ([4]; 100 μM): 0%

Molecule: CC1(CC(F)(F)F)CCSC1=O (centres unmarked) [Compound 60]
- IC50 [5]: 520 µM
- % of stimulation of GABA (concentration) ([6]; 300 μM): +160 ± 17%

Molecule: CCCC1(CCC)C(=O)OCC1NC(=O)c1ccccc1 (centres unmarked) [Compound 34]
- activation at 2 µM [2, 9]: 17%
- activation at 20 µM [2, 9]: 207%
- activation at 200 µM [2, 8]: 420%
- Inhibition of the radiolabeled ligands % Muscimol [3]: 0%
- stimulation of the binding of flunitrazepam (printed in the % Flu inhibition column) ([4]; 100 μM): weak stimulation and weak

Molecule: C[C@@H]1C(=O)OC[C@H]1NC(=O)OCc1ccccc1 (relative stereo) [Compound 28, trans-3-benzyloxycarbonylamino-2-(C-methyl)-1,4-butyrolactone]
- Inhibition of the radiolabeled ligands % TBPS ([1]; 100 μM): 0%
- stimulating activities for the GABA current (in words) [2]: low stimulating activities
- % of stimulation of the GABA currents ([2]; 50 μM, α1β2γ2): −7 ± 7%
- Inhibition of the radiolabeled ligands % Muscimol [3]: 0%
- Inhibition of the radiolabeled ligands % Flu ([4]; 100 μM): 0%

Molecule: CCC1(C)COC(=O)C1 (centres unmarked) [Compound 54]
- convulsant or anticonvulsant effect in mice (mice): convulsant effects

Molecule: C[C@H]1C(=O)OC[C@H]1NC(=O)OCc1ccccc1 (relative stereo) [Compound 27, cis-3-benzyloxycarbonylamino-2-(C-methyl)-1,4-butyrolactone]
- Inhibition of the radiolabeled ligands % TBPS ([1]; 100 μM): 0%
- % of stimulation of the GABA currents ([2]; 50 μM, α1β2γ2): −1 ± 2%
- stimulation of muscimol binding (printed in the % Muscimol inhibition column) [3]: 10% stimulation
- Inhibition of the radiolabeled ligands % Flu ([4]; 100 μM): 0%

Molecule: C[C@@H]1C(=O)OC[C@@H]1N(Cc1ccccc1)C(=O)OCc1ccccc1 (relative stereo) [Compound 43, cis-3-(N-benzyl-N-benzyloxycarboyl)amino-2-(C-methyl)-1,4-butyrolactone]
- Inhibition of the radiolabeled ligands % TBPS ([1]; 10 μM): 35%
- Inhibition of the radiolabeled ligands % TBPS ([1]; 100 μM): 60%
- % of stimulation of the GABA currents ([2]; 200 μM, α1β2γ2): −3 ± 3%
- Inhibition of the radiolabeled ligands % Muscimol [3]: 0%
- Inhibition of the radiolabeled ligands % Flu ([4]; 10 μM): 20%
- Inhibition of the radiolabeled ligands % Flu ([4]; 100 μM): 30%

Molecule: CCC1(CC)CCNC1=O [Compound 58]
- IC50 [5]: 5800 µM
- % of stimulation of GABA (concentration) ([6]; 1 μM): +137 ± 6%

Molecule: CCC1(C)CCOC1=O (centres unmarked) [Compound 55]
- IC50 [5]: 2300 µM
- convulsant or anticonvulsant effect in mice (mice): anticonvulsant properties
- % of stimulation of GABA (concentration) ([6]; 300 μM): +101 ± 8%

Molecule: 3-Benzylamino-3,3-di(C-allyl)-1,4-butyrolactone [Compound 16]
- Inhibition of the radiolabeled ligands % TBPS ([1]; 100 μM): 62%
- % of stimulation of the GABA currents ([2]; 200 μM, α1β2γ2): +115 ± 30%

Molecule: C=CCOC(=O)NC1COC(=O)C1(CCC)CCC (centres unmarked) [Compound 35, 3-Allyloxycarbonylamino-2,2-di(C-propyl)-1,4-butyrolactone]
- times more powerful than α-EMTBL in stimulating the currents produced by GABA [2]: up to 100 times
- activation at 2 µM [2, 9]: 26%
- activation at 20 µM [2, 9]: 229%
- activation at 200 µM [2, 8]: 765%
- Inhibition of the radiolabeled ligands % Muscimol [3]: 0%
- stimulation of the binding of flunitrazepam (printed in the % Flu inhibition column) ([4]; 100 μM): weak stimulation and weak

Molecule: CCCC1(CCC)C(=O)OCC1NS(=O)(=O)c1ccc(OC)cc1 (centres unmarked) [Compound 33, 3-(p-Methoxyphenylsulfonamido)-2,2-di(C-propyl)-1,4-butyrolactone]
- IC50 [1]: 50 µM
- Inhibition of the radiolabeled ligands % Muscimol [3]: 0%
- stimulation of the binding of flunitrazepam (printed in the % Flu inhibition column) ([4]; 100 μM): weak

Molecule: CCCC1(CCC)C(=O)OCC1NS(=O)(=O)c1ccc(C(F)(F)F)cc1 (centres unmarked) [Compound 32, 3-(p-Trifluoromethylphenylsulfonamido)-2,2-di(C-propyl)-1,4-butyrolactone]
- Inhibition of the radiolabeled ligands % TBPS ([1]; 10 μM, anterior part of the brain): 100%
- Inhibition of TBPS in the cerebellum ([1]; cerebellum): incomplete
- Inhibition of the radiolabeled ligands % Muscimol [3]: 0%
- stimulation of the binding of flunitrazepam (printed in the % Flu inhibition column) ([4]; 100 μM): 15-20%
